The record followed here is patent US4229471A, “N-(2-Ethylhexyl)-crotonamides” (The Lion Dentifrice Co., Ltd., priority 1978, dated 1980).

The nature of data set [1]: Acute toxicity test. As to conditions: in vivo, ip; ICR male mouse, intraperitoneal.
Data set [2] has as its system cancerized mast cells (Mastocytoma P-815). The data set is described as follows: Inhibition of growth of cancerized mast cells (Mastocytoma P-815) during 20 hours of cultivation. The data set is classed as cell-based, mouse. The note with it: 20 hour cultivation, 37° C., FIG. 5. How it is done:
20 ml of a culture medium containing cancerized mast cells of a mouse (Mastocytoma P-815) at an inoculum cell concentration of 1.6×10^5 cells/ml in Fischer and Sartorelli's medium supplemented with 5% fetal calf serium were cultured in a 120 ml Erlenmeyer flask with or without drugs to be tested in an atmosphere of 5% CO2 and 95% air at 37° C. for 20 hours in a humidified incubator. Drugs, N-(2-ethylhexyl)-crotonamide, N-(2-ethylhexyl)-β-methylcrotonamide or N-(2-ethylhexyl)-β-hydroxybutyramide were added in different amounts to the initial culture medium. No drug was added to a control solution. After cultivation, the number of cells was counted.
The results are shown in FIG. 5 wherein A corresponds to N-(2-ethylhexyl)-crotonamide, B corresponds to N-(2-ethylhexyl)-beta-methylcrotonamide, C corresponds to N-(2-ethylhexyl)-beta-hydroxybutyramide, D is the inoculum cell number, and E corresponds to the control. A, B, C and E are the cell numbers after 20 hour cultivation as described above.

The test system of data set [3] is Mastocytoma P-815. The data set is described as follows: Ascites tumor (Mastocytoma P-815) inhibition in BDF1 mice. Type of data set: in vivo. The note with it: 0.5 mg/mouse/day × 6, intraperitoneal. How it is done:
Mice of BDF1 species (5 week old male, suppliers: Charles River and Shizuoka Laboratory Animal Center) were divided into four groups each containing three to six. Cancerized mast cells (Mastocytoma P-815) were implanted into the ascites of a mouse in an amount of 1×10^6 cells/mouse. From the next day, drug
A: N-(2-ethylhexyl)-crotonamide,
B: N-(2-ethylhexyl)-beta-methylcrotonamide, or
C: N-(2-ethylhexyl)-beta-hydroxybutyramide
was administered once a day by intra-peritoneal injection in an amount of 0.5 mg/mouse/day for 6 days, respectively. After 18 hours from the last administration, the mice were killed with ether for anesthesia. The entire ascitic cells were taken out with about 20 ml of phosphate buffered saline. Using the nigrosine staining method (0.01% nigrosine in Earl's balanced salt solution), the number of cells, particularly, live cells were counted by means of a Thomas leucocyte counting apparatus.
For the above-described administration procedure was used 50 mg of the drug to which 25 mg of polyoxyethylene sorbitan monooleate (Tween 80) was added and the mixture was suspended in 5 ml of physiological salt solution and sterilized in an autoclave at 120° C. under 2 atm. for 15 minutes. The resulting sterile suspension was ready for administration.
**Tumor inhibition ratio was calculated in terms of the following
C : number of ascites cancer cells in the control group
N : number of ascites cancer cells in the treated group

In data set [4] the test system is DNA synthesis in cancerized mast cells (Mastocytoma P-815). The data set is described as follows: 3H-TdR incorporation into DNA of cancerized mast cells. The data set is classed as cell-based, mouse. As to conditions: for inhibition at 100 µg/mL / inhibition at 500 µg/mL: Mus musculus, P815, 1.25 h, read-out: DNA synthesis inhibition ratio. How it is done:
Effects of drugs on ^3 H-TdR (tritium labelled thymidine) incorporation into DNA of cancerized mast cells were examined.
Cancerized mast cells (Mastocytoma P-815), 4.25×10^6 cells, were incubated for 15 minutes with or without each of drugs, A: (N-(2-ethylhexyl)-crotonamide), B: (N-(2-ethylhexyl)-β-methylcrotonamide) and C: (N-(2-ethylhexyl)-β-hydroxybutyramide) (each 100 μg and 500 μg) in 1 cc of Fischer culture medium. Thereafter, 0.1 μCi of ^3 H-TdR was added and incubation was proceeded for an additional 60 minutes. The cells were washed with PBS and the DNA was precipitated with 5% (W/V) trichloroacetic acid. Precipitates were counted in a liquid Scintillation Spectrometer.
*Inhibition ratio was calculated in terms of the following equation: […]
c : amount of ^3 H--TdR incorporated in the control group (cpm)
s : amount of ^3 H--TdR incorporated in the treated group (cpm)

Data set [5] can be described thus: Solubility. The data set is classed as physicochemical. As to conditions: for solubility in organic solvents: organic solvents such as acetone.
Data set [6] has as its system cancerous cells. The data set is described as follows: Carcinostatic activity (overall statement).
Setting [7] is: Shizuoka Laboratory Animal Center BDF1 mice.

Regarding `C/C=C/C(=O)NCC(CC)CCCC` (stereo not drawn) [Drug A, N-(2-ethylhexyl)-crotonamide], the LD50 (in general, the dose at which mortality reaches 50%) in data set [1] was found to be 540 mg/kg. For the same compound, in data set [2], the “inhibition of division and growth of cancerized mast cells” value is reported as “more effective than N-(2-ethylhexyl)-β-hydroxybutyramide”. In data set [3] (Charles River BDF1 mice), the “Number of ascites cancer cells” value is 1.5 ×10^8 /mouse and the Tumor inhibition ratio worked out at 90.9%. Also, in data set [3] (setting [7]), the “Number of ascites cancer cells” value is 1.2 ×10^8 /mouse and the Tumor inhibition ratio was determined as 87.6%. For the same compound, in data set [4], the “inhibition of DNA synthesis (in words)” value was “effective in inhibiting DNA synthesis”. Also, in data set [4] (100 μg in 1 cc medium), the “3H-TdR incorporated (cpm)” value amounted to 400 cpm and the inhibition at 100 µg/mL is 90.1%. Further, in data set [4] (500 μg in 1 cc medium), the “3H-TdR incorporated (cpm)” value amounted to 75 cpm and the inhibition at 500 µg/mL came out at 98.1%. Besides, in data set [5], the “solubility in organic solvents” value is given as “soluble in organic solvents such as acetone” and the solubility in water result is recorded as “insoluble in water”. Further, the carcinostatic activity entry in data set [6] is given as “high carcinostatic activity”.
Turning to `CCCCC(CC)CNC(=O)C=C(C)C` (stereo not drawn) [Drug B, N-(2-ethylhexyl)-β-methylcrotonamide], in data set [1], the LD50 amounted to 1400 mg/kg. Moreover, the “inhibition of division and growth of cancerized mast cells” value in data set [2] was “more effective than N-(2-ethylhexyl)-β-hydroxybutyramide”. For the same compound, in data set [3] (Charles River BDF1 mice), the “Number of ascites cancer cells” value is on record as 9.5 ×10^8 /mouse and the Tumor inhibition ratio is recorded as 42.1%. Further, in data set [3] (setting [7]), the “Number of ascites cancer cells” value was 4.0 ×10^8 /mouse and the Tumor inhibition ratio is 58.8%. Moreover, in data set [4], the “inhibition of DNA synthesis (in words)” value is “effective in inhibiting DNA synthesis”. In addition, in data set [4] (100 μg in 1 cc medium), the “3H-TdR incorporated (cpm)” value worked out at 200 cpm and the inhibition at 100 µg/mL is 95.1%. Further, in data set [4] (500 μg in 1 cc medium), the “3H-TdR incorporated (cpm)” value was 0 cpm and the inhibition at 500 µg/mL worked out at 100%. Also, in data set [5], the “solubility in organic solvents” value was “soluble in organic solvents such as acetone” and the solubility in water result was “insoluble in water”. The carcinostatic activity entry in data set [6] is “high carcinostatic activity”.
Take `CCCCC(CC)CNC(=O)CC(C)O` (stereo not drawn) [Drug C, N-(2-ethylhexyl)-β-hydroxybutyramide, reference compound]: in data set [3] (Charles River BDF1 mice), the “Number of ascites cancer cells” value is listed as 6.0 ×10^8 /mouse and the Tumor inhibition ratio turned out to be 63.4%. Besides, in data set [3] (setting [7]), the “Number of ascites cancer cells” value is listed as 6.7 ×10^8 /mouse and the Tumor inhibition ratio worked out at 30.9%. Further, in data set [4] (100 μg in 1 cc medium), the “3H-TdR incorporated (cpm)” value is 2205 cpm and the inhibition at 100 µg/mL came to 45.6%. In addition, in data set [4] (500 μg in 1 cc medium), the “3H-TdR incorporated (cpm)” value is recorded as 1200 cpm and the inhibition at 500 µg/mL turned out to be 70.4%.
